A value given as a limit tells only on which side of the number the result lay.

The results in this text go back to ChEMBL document CHEMBL5108015, “4,6-Disubstituted-1H-Indazole-4-Amine derivatives with immune-chemotherapy effect and in vivo antitumor activity” (Eur J Med Chem, 2022).

Experiment [1] deals with T1, Tryptophan 2,3-dioxygenase (Homo sapiens, UniProt P48775). Description: Inhibition of N-terminal hexa-histidine tagged human TDO (19 to 388 residues) expressed in Escherichia coli Transetta (DE3) using L-tryptophan as substrate at 100 uM preincubated with enzyme for 10 mins followed by substrate addition and measured after 30 to 60 mins by microplate reader analysis relative to control. The settings on record: time 40-70 min.
Target sequence in this assay (P48775 whole entry, looked up, the tested form may be a part): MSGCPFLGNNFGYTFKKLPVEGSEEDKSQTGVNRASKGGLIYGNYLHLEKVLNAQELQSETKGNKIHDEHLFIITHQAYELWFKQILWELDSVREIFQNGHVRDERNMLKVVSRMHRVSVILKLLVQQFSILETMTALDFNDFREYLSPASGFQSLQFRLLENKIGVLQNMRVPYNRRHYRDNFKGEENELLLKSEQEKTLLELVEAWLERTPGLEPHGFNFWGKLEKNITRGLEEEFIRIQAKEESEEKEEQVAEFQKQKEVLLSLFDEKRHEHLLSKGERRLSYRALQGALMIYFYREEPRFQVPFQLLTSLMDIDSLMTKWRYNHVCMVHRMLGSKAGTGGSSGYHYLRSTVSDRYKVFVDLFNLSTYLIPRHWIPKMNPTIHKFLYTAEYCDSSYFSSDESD

Experiment [2] deals with T1, Tryptophan 2,3-dioxygenase. The experiment in a line: Inhibition of N-terminal hexa-histidine tagged human TDO (19 to 388 residues) expressed in Escherichia coli Transetta (DE3) using L-tryptophan as substrate at 10 uM preincubated with enzyme for 10 mins followed by substrate addition and measured after 30 to 60 mins by microplate reader analysis relative to control. The settings on record: time 40-70 min.
Target sequence in this assay (P48775 whole entry, looked up, the tested form may be a part): as above

Experiment [3] has as its target T1, Tryptophan 2,3-dioxygenase. The experiment in a line: Inhibition of N-terminal hexa-histidine tagged human TDO (19 to 388 residues) expressed in Escherichia coli Transetta (DE3) using L-tryptophan as substrate preincubated with enzyme for 10 mins followed by substrate addition and measured after 30 to 60 mins by microplate reader analysis.
Target sequence in this assay (P48775 whole entry, the tested form may be a part): as the sequence (P48775 whole entry, looked up, the tested form may be a part) above
The target of experiment [4] is T2, Indoleamine 2,3-dioxygenase 1 (Homo sapiens, UniProt P14902). Description: Inhibition of N-terminal hexa-histidine tagged human IDO1 (12 to 403 residues) expressed in Escherichia coli Transetta (DE3) using L-tryptophan as substrate at 100 uM preincubated with enzyme for 10 mins followed by substrate addition and measured after 30 to 60 mins by microplate reader analysis relative to control. The settings on record: time 40-70 min.
Target sequence in this assay (P14902 whole entry, looked up, the tested form may be a part): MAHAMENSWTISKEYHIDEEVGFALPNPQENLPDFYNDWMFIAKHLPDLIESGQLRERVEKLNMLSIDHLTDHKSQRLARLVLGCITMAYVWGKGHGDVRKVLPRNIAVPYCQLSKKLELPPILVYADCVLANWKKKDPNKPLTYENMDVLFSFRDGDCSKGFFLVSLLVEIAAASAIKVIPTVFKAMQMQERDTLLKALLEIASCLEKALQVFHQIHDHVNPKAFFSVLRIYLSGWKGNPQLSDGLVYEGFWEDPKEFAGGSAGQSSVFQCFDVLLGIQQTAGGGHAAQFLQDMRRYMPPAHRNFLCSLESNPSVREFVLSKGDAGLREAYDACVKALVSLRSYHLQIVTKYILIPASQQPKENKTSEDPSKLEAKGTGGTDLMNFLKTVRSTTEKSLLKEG

Experiment [5] has as its target T2, Indoleamine 2,3-dioxygenase 1. The experiment in a line: Inhibition of N-terminal hexa-histidine tagged human IDO1 (12 to 403 residues) expressed in Escherichia coli Transetta (DE3) using L-tryptophan as substrate at 10 uM preincubated with enzyme for 10 mins followed by substrate addition and measured after 30 to 60 mins by microplate reader analysis relative to control. The conditions noted are these: time 40-70 min.
Target sequence in this assay (P14902 whole entry, looked up, the tested form may be a part): as above

Experiment [6] shares this target. Description: Inhibition of N-terminal hexa-histidine tagged human IDO1 (12 to 403 residues) expressed in Escherichia coli Transetta (DE3) using L-tryptophan as substrate preincubated with enzyme for 10 mins followed by substrate addition and measured after 30 to 60 mins by microplate reader analysis.
Target sequence in this assay (P14902 whole entry, the tested form may be a part): as the sequence (P14902 whole entry, looked up, the tested form may be a part) above

What is called inhibition is the relative decrease from the control value, in per cent. A low value points to a response near the control. The term IC50 denotes the midpoint of a concentration-inhibition curve. A higher IC50 goes with weaker potency. On to `O=[N+]([O-])c1cc(OCc2ccccc2)ccc1CNc1cc(C(F)(F)F)cc2[nH]ncc12`, for which the inhibition stood at 55% in experiment [1], 49% in experiment [2], 20% in experiment [4] and 10% in experiment [5]. For the same compound, the figures for the IC50 in experiment [3] and in experiment [6] were 97 µM and greater than 100 µM, respectively.

In the case of `CNC(=O)c1cccc(CNc2cc(C(F)(F)F)cc3[nH]ncc23)c1`, the inhibition in experiment [1] was determined as 91%; in experiment [2] it was 71%; in experiment [4], 46%; in experiment [5], 33%. In addition, the IC50 in experiment [3] is 4.87 µM; in experiment [6], greater than 100 µM.

Consider `FC(F)(F)c1cc(NCc2cccc(Br)c2)c2cn[nH]c2c1`, for which the inhibition in experiment [1] was 84%; in experiment [2], 67%; in experiment [4], 51%; in experiment [5], 23%. The figures for the half-maximal inhibitory concentration (IC50) in experiment [3] and in experiment [6] were 19.1 µM and greater than 100 µM, respectively.

On to `OC1CCCC(Nc2cccc(CNc3cc(C(F)(F)F)cc4[nH]ncc34)c2)C1` (stereo not drawn), for which the inhibition in experiment [1] was 23%; in experiment [4] it was 2%. Also, the IC50 in experiment [3] and in experiment [6] was greater than 100 µM in each case.

With `CC(C)n1ncc2c(NCc3ccccc3[N+](=O)[O-])cc(C(F)(F)F)cc21`, the inhibition came to 32% in experiment [1], 35% in experiment [2], 13% in experiment [4] and 7% in experiment [5]. For the same compound, the half-inhibitory concentration (IC50) in experiment [3] and in experiment [6] was greater than 100 µM in each case.

As for `Nc1cccc(CNc2cc(C(F)(F)F)cc3[nH]ncc23)c1`, the inhibition in experiment [1] stood at 89%; in experiment [2], 68%; in experiment [4], 55%; in experiment [5], 24%. Besides, the IC50 in experiment [3] was 2.51 µM; in experiment [6], greater than 100 µM.

In the case of `NCCn1ncc2c(NCc3ccccc3[N+](=O)[O-])cc(C(F)(F)F)cc21`, the inhibition was determined as 29% in experiment [1], 25% in experiment [2], 30% in experiment [4] and 9% in experiment [5]. The IC50 in experiment [3] and in experiment [6] was greater than 100 µM each time.

For `FC(F)(F)c1cc(NCC2CNC2)c2cn[nH]c2c1`, the inhibition in experiment [1] turned out to be 49%; in experiment [2], 5%; in experiment [4], 22%; in experiment [5], 10%. Further, the IC50 in experiment [3] and in experiment [6] was greater than 100 µM in each case.

In the case of `O=C(O)CNc1cccc(CNc2cc(C(F)(F)F)cc3[nH]ncc23)c1`, the inhibition in experiment [1] worked out at 65%; in experiment [4] it was 8%. Also, the IC50 in experiment [3] and in experiment [6] was greater than 100 µM each time.

With `O=[N+]([O-])c1ccccc1CNc1cc(Br)cc2[nH]ncc12`, the inhibition in experiment [1] was 64%; in experiment [2], 52%; in experiment [4], 83%; in experiment [5], 67%. The IC50 in experiment [3] amounted to 38.9 µM; in experiment [6], 8.04 µM.

For `O=[N+]([O-])c1cccc(CNc2cc(C(F)(F)F)cc3[nH]ncc23)c1`, the inhibition in experiment [1] amounted to 82%; in experiment [2], 60%; in experiment [4] it was 69%; in experiment [5], 45%. Besides, the half-inhibitory concentration (IC50) is 5.17 µM in experiment [3] and greater than 100 µM in experiment [6].

For the compound `O=[N+]([O-])c1ccc(CNc2cc(C(F)(F)F)cc3[nH]ncc23)cc1`, the inhibition in experiment [1] was 64%; in experiment [2], 47%; in experiment [4], 61%; in experiment [5] it was 52%. Also, the results for the IC50 in experiment [3] and in experiment [6] were greater than 100 µM and 61 µM, respectively.

For the compound `FC(F)(F)c1cccc(CNc2cc(C(F)(F)F)cc3[nH]ncc23)c1`, the inhibition was determined as 74% in experiment [1], 40% in experiment [2], 49% in experiment [4] and 25% in experiment [5]. The IC50 was 12.2 µM in experiment [3] and greater than 100 µM in experiment [6].

On to `FC(F)(F)c1cc(NC[C@H]2CCCCN2)c2cn[nH]c2c1`, for which the inhibition in experiment [1] is 90%; in experiment [2] it was 69%; in experiment [4], 69%; in experiment [5] it was 19%. Further, the IC50 in experiment [3] turned out to be 0.46 µM; in experiment [6], 24 µM.

Regarding `N#Cc1cc(NCc2ccccc2[N+](=O)[O-])c2cn[nH]c2c1`, the inhibition in experiment [1] was found to be 41%; in experiment [2] it was 22%; in experiment [4], 17%; in experiment [5], 7%. The IC50 in experiment [3] and in experiment [6] was greater than 100 µM throughout.

For the compound `O=[N+]([O-])c1ccccc1CNc1cccc2[nH]ncc12`, the inhibition came out at 87% in experiment [1], 45% in experiment [2], 65% in experiment [4] and 25% in experiment [5]. Half-maximal inhibition in experiment [3] (IC50) required 17 µM.

`Oc1ccc(CNc2cc(C(F)(F)F)cc3[nH]ncc23)c(Cl)c1`: the inhibition was 97% in experiment [1], 92% in experiment [2], 95% in experiment [4] and 83% in experiment [5]. For the same compound, the values for the IC50 in experiment [3] and in experiment [6] were 2.68 µM and 6.02 µM, respectively.

For the compound `O=C1NCc2c(NCc3ccccc3[N+](=O)[O-])cccc21`, the inhibition in experiment [1] worked out at 29%; in experiment [2], 23%; in experiment [4] it was 9%; in experiment [5] it was 8%. The IC50 in experiment [3] and in experiment [6] was greater than 100 µM throughout.

With `O=[N+]([O-])c1ccc2[nH]c(CNc3cc(C(F)(F)F)cc4[nH]ncc34)cc2c1`, the inhibition amounted to 69% in experiment [1], 54% in experiment [2], 38% in experiment [4] and 22% in experiment [5]. Besides, the 50% inhibitory concentration (IC50) in experiment [3] and in experiment [6] was greater than 100 µM throughout.

In the case of `O=C1NC(=O)c2c(NCc3ccccc3[N+](=O)[O-])cccc21`, the inhibition in experiment [1] was 25%; in experiment [2] it was 17%; in experiment [4], 4%; in experiment [5] it was 11%. In addition, the IC50 in experiment [3] and in experiment [6] was greater than 100 µM in each case.

On to `O=C(O)c1cccc(CNc2cc(C(F)(F)F)cc3[nH]ncc23)c1`, for which the inhibition was 94% in experiment [1], 81% in experiment [2], 17% in experiment [4] and 11% in experiment [5]. Moreover, the IC50 in experiment [3] was 1.69 µM; in experiment [6], greater than 100 µM.

Take `Oc1ccc(CNc2cc(C(F)(F)F)cc3[nH]ncc23)cc1`: the inhibition stood at 91% in experiment [1], 75% in experiment [2], 81% in experiment [4] and 37% in experiment [5]. For the same compound, the IC50 amounted to 2.55 µM in experiment [3] and 36.7 µM in experiment [6].

Consider `COC(=O)c1cc(NCc2ccccc2[N+](=O)[O-])c2cn[nH]c2c1`, for which the inhibition was determined as 20% in experiment [1], 16% in experiment [2], 47% in experiment [4] and 11% in experiment [5]. Besides, the IC50 in experiment [3] and in experiment [6] was greater than 100 µM in each case.

For the compound `O=[N+]([O-])c1ccccc1CNc1cc(Br)cc2cn[nH]c12`, the inhibition in experiment [1] was determined as 48%; in experiment [2], 35%; in experiment [4] it was 9%; in experiment [5] it was 4%. In addition, the half-maximal inhibitory concentration (IC50) in experiment [3] and in experiment [6] was greater than 100 µM in each case.

As for `FC(F)(F)c1cc(NCc2cccc3sccc23)c2cn[nH]c2c1`, the inhibition came to 5% in experiment [1] and 3% in experiment [4]. Moreover, the half-inhibitory concentration (IC50) in experiment [3] and in experiment [6] was greater than 100 µM each time.
